Reference: US20010044102A1, “ASSAYS AND REAGENTS FOR IDENTIFYING MODULATORS OF CDC25-MEDIATED MITOTIC ACTIVATION” (priority 1996, published 2001)

Tests used:
cdc25 = conditions: cited from earlier work
Val 5 cells = assay: Myc-driven apoptosis and DNA replication in MycER cells treated with cdc25A antisense oligonucleotide, scored by TUNEL; format: cell-based; conditions: MycER induced by β-estradiol, 0.1% serum, shift from 39 to 32° C., FIG. 5B
Protocol: Finally, to investigate whether induction of the cdc25A gene is essential for Myc-driven apoptosis, we incubated Val 5 cells after MycER induction by β-estradiol with an antisense cdc25A oligonucleotide. Following this incubation, cells were shifted from 39 to 32° C., activating wild type p53 function, which normally results in apoptosis (Wagner et al. (1994) Genes Dev. 8:2817-2830). A scrambled oligonucleotide with the same nucleotide content was used in control experiments. We observed that both apoptosis and DNA replication was inhibited by the treatment with the antisense, but not with scrambled (control) oligonucleotides (FIG. 5B).
Human cdc25A, B and C under control of CMV promoter and pCMV CD20 has been described (Galaktionov et al. (1995) Science 269:1575-1577). […] Apoptotic figures were scored 24 hours later upon microscopic investigation of the cultures based on CD20 staining, indicative of successful transfection (more than 2%, usually 8-10%), and visible morphological changes indicative of cell death (membrane blebbing, chromatin condensation, etc.). […] 48 hours after shifting to 0.1% serum, MycER fusion protein was induced by the addition of β-estradiol and cell incubation continued for another 24 hours, at which point cells were photographed and apoptosis was scored by TUNEL.

Row | Compound | cdc25 inhibitor (previously described in the literature) (cdc25) | DNA replication (Val 5 cells)
1 | CN1C2CC3C1C1C(C4=C(C(=O)C(N)=CC4=O)C(CO)N1C2C#N)N1CCOC31 (stereo not drawn) [dnacin A1] | cdc25 inhibitors | –
2 | CN1C2CC3C1C1C(C4=C(C(=O)C(N)=CC4=O)C(CO)N1C2O)N1CCOC31 (stereo not drawn) [dnacin B1] | cdc25 inhibitors | –
3 | scrambled oligonucleotide: scrambled oligonucleotide (GGTACCTTGACCCGGGCTCG) with the same nucleotide content, used as control (chemistry not given here) | – | not
